Biological target: T1, Recombinant human cathepsin A (Homo sapiens, UniProt P10619)
T1 construct: Recombinant human cathepsin A (residues 29-480, with a C-terminal 10-His tag); 10-His (C); purchased R&D Systems 1049-SE
T1 sequence (P10619 29-326 limits assumed): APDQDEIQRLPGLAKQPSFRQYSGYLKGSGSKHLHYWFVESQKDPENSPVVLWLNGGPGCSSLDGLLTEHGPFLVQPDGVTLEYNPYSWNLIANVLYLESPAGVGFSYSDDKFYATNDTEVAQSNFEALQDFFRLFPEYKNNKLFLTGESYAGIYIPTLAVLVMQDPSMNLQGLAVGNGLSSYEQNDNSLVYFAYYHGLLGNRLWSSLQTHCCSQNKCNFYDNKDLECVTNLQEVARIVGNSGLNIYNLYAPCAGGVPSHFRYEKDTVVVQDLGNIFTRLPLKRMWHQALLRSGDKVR
T1 sequence (P10619 327-480 limits assumed): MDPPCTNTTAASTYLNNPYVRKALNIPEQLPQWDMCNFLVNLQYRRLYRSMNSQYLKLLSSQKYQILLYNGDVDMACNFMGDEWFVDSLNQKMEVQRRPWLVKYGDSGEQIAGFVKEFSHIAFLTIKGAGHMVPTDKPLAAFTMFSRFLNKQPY
Experiment: Cathepsin A inhibitory activity
Assay type: biochemical
Settings: activated recombinant human cathepsin A 833 ng/ml, Bodipy FL-labeled bradykinin 2 μM, pH 5.5, 15 min room temperature
Experimental: a) Cathepsin a Inhibitory Activity
Briefly, cathepsin A was incubated at 10 μg/ml with cathepsin L at 1 μg/ml in activation buffer (25 mM 2-(morpholin-4-yl)-ethanesulfonic acid (MES), pH 6.0, containing 5 mM dithiothreitol (DTT)) for 15 min at 37° C.
The activated cathepsin A was diluted in assay buffer (25 mM MES, pH 5.5, containing 5 mM DTT) and mixed with the test compound (dissolved in assay buffer containing (v/v) 3% DMSO) or, in the control experiments, with the vehicle in a multiple assay plate. After incubation for 15 min at room temperature, as substrate then bradykinin carrying an N-terminal ®Bodipy FL (4,4-difluoro-5,7-dimethyl-4-bora-3a,4a-diaza-s-indacene-3-propionyl) label (JPT Peptide Technologies GmbH; dissolved in assay buffer) was added to the mixture. […] After incubation for 15 min at room temperature the reaction was stopped by the addition of stop buffer (130 mM 2-(4-(2-hydroxy-ethyl)-piperazin-1-yl)-ethanesulfonic acid, pH 7.4, containing (v/v) 0.013%® Triton X-100, 0.13% Coating Reagent 3 (Caliper Life Sciences), 6.5% DMSO and 20 μM ebelactone B (Sigma, # E0886)).
Uncleaved substrate and product were then separated by a microfluidic capillary electrophoresis on a LabChip® 3000 Drug Discovery System (12-Sipper-Chip; Caliper Life Sciences) and quantified by determination of the respective peak areas. Substrate turnover was calculated by dividing product peak area by the sum of substrate and product peak areas, and the enzyme activity and the inhibitory effect of the test compound thus quantified.

Row | SMILES | IC50 [nM]
1 | O=C(O)C[C@H](NC(=O)c1noc(-c2cccc(F)c2F)n1)c1ccccc1C(F)(F)F [Example 101, (S)-3-{[5-(2,3-Difluoro-phenyl)-[1,2,4]oxadiazole-3-carbonyl]-amino}-3-(2-trifluoromethyl-phenyl)-propionic acid] | > 10000
2 | Cc1ccccc1[C@H](CC(=O)O)NC(=O)c1cc(-c2ccccc2)n(Cc2ccccc2)n1 [Example 98, (S)-3-[(1-Benzyl-5-phenyl-1H-pyrazole-3-carbonyl)-amino]-3-o-tolyl-propionic acid] | 75
3 | Cc1ccccc1[C@H](CC(=O)O)NC(=O)c1nn(Cc2ccccc2)c2ccccc12 [Example 72, (S)-3-[(1-Benzyl-1H-indazole-3-carbonyl)-amino]-3-o-tolyl-propionic acid] | 171
4 | Cc1ccccc1[C@H](CC(=O)O)NC(=O)c1nn(C)cc1NS(=O)(=O)CC(C)(C)C [Example 95, (S)-3-{[4-(2,2-Dimethyl-propane-1-sulfonylamino)-1-methyl-1H-pyrazole-3-carbonyl]-amino}-3-o-tolyl-propionic acid] | > 10000
5 | Cc1oc(-c2ccccc2)nc1C(=O)N[C@@H](CC(=O)O)c1ccc(Cl)cc1Cl [Example 75, (S)-3-(2,4-Dichloro-phenyl)-3-[(5-methyl-2-phenyl-oxazole-4-carbonyl)-amino]-propionic acid] | 1750
6 | COc1cccc([C@H](CC(=O)O)NC(=O)c2nc(-c3ccccc3)oc2C)c1 [Example 24, (S)-3-(3-Methoxy-phenyl)-3-[(5-methyl-2-phenyl-oxazole-4-carbonyl)-amino]-propionic acid] | 6390
7 | Cc1oc(-c2ccccc2)nc1C(=O)N[C@@H](CC(=O)O)c1cccc(Cl)c1 [Example 28, (S)-3-(3-Chloro-phenyl)-3-[(5-methyl-2-phenyl-oxazole-4-carbonyl)-amino]-propionic acid] | 1110
8 | Cc1oc(-c2ccccc2)nc1C(=O)N[C@@H](CC(=O)O)c1ccccc1C(F)(F)F [Example 78, (S)-3-[(5-Methyl-2-phenyl-oxazole-4-carbonyl)-amino]-3-(2-trifluoromethyl-phenyl)-propionic acid] | 8470
9 | Cc1ccccc1[C@H](CC(=O)O)NC(=O)c1cc(S(=O)(=O)N(C)C)oc1C [Example 46, (S)-3-[(5-Dimethylsulfamoyl-2-methyl-furan-3-carbonyl)-amino]-3-o-tolyl-propionic acid] | > 10000
10 | O=C(O)C[C@H](NC(=O)CCc1nc(-c2ccccc2F)no1)c1ccccc1C(F)(F)F [Example 110, (S)-3-{3-[3-(2-Fluoro-phenyl)-[1,2,4]oxadiazol-5-yl]-propionylamino}-3-(2-trifluoromethyl-phenyl)-propionic acid] | > 10000
11 | O=C(O)C[C@H](NC(=O)CCc1nc(-c2ccccc2F)no1)c1ccc(C(F)(F)F)cc1 [Example 111, (S)-3-{3-[3-(2-Fluoro-phenyl)-[1,2,4]oxadiazol-5-yl]-propionylamino}-3-(4-trifluoromethyl-phenyl)-propionic acid] | > 10000
12 | Cc1oc(-c2ccccc2)nc1C(=O)N[C@@H](CC(=O)O)c1ccc(F)cc1 [Example 9, (S)-3-(4-Fluoro-phenyl)-3-[(5-methyl-2-phenyl-oxazole-4-carbonyl)-amino]-propionic acid] | 5570
13 | CC(C)c1oc(-c2ccccc2)nc1C(=O)N[C@@H](CC(=O)O)c1ccccc1Cl [Example 67, (S)-3-(2-Chloro-phenyl)-3-[(5-isopropyl-2-phenyl-oxazole-4-carbonyl)-amino]-propionic acid] | 1400
14 | Cc1oc(-c2ccccc2F)nc1C(=O)N[C@@H](CC(=O)O)c1cccc(Cl)c1 [Example 61, (S)-3-(3-Chloro-phenyl)-3-{[2-(2-fluoro-phenyl)-5-methyl-oxazole-4-carbonyl]-amino}-propionic acid] | 189
15 | CCc1nc(C(=O)N[C@@H](CC(=O)O)c2ccccc2C)nn1-c1ccccc1Cl [Example 70, (S)-3-{[1-(2-Chloro-phenyl)-5-ethyl-1H-[1,2,4]triazole-3-carbonyl]-amino}-3-o-tolyl-propionic acid] | 166
16 | Cc1ccccc1[C@H](CC(=O)O)NC(=O)c1cc(-c2ccccc2)n(Cc2ccc(F)cc2)n1 [Example 118, (S)-3-{[1-(4-Fluoro-benzyl)-5-phenyl-1H-pyrazole-3-carbonyl]-amino}-3-o-tolyl-propionic acid] | 1540
17 | Cn1cc(NS(=O)(=O)CC2CCCCC2)c(C(=O)N[C@@H](CC(=O)O)c2ccccc2)n1 [Example 109, (S)-3-[(4-Cyclohexylmethanesulfonylamino-1-methyl-1H-pyrazole-3-carbonyl)-amino]-3-phenyl-propionic acid] | > 10000
18 | Cc1ccccc1[C@H](CC(=O)O)NC(=O)c1nc(-c2ccccc2)oc1C(F)(F)F [Example 77, (S)-3-[(2-Phenyl-5-trifluoromethyl-oxazole-4-carbonyl)-amino]-3-o-tolyl-propionic acid] | 1910
19 | Cc1ccccc1[C@H](CC(=O)O)NC(=O)c1noc(-c2cccc(F)c2F)n1 [Example 42, (S)-3-{[5-(2,3-Difluoro-phenyl)-[1,2,4]oxadiazole-3-carbonyl]-amino}-3-o-tolyl-propionic acid] | > 10000
20 | COc1cccc([C@H](CC(=O)O)NC(=O)c2nc(-c3ccccc3)oc2C)c1OC [Example 66, (S)-3-(2,3-Dimethoxy-phenyl)-3-[(5-methyl-2-phenyl-oxazole-4-carbonyl)-amino]-propionic acid] | 12500
21 | O=C(O)C[C@H](NC(=O)c1noc(-c2ccccc2F)n1)c1cccc(F)c1 [Example 18, (S)-3-(3-Fluoro-phenyl)-3-{[5-(2-fluoro-phenyl)-[1,2,4]oxadiazole-3-carbonyl]-amino}-propionic acid] | > 10000
22 | Cc1oc(-c2ccccc2F)nc1C(=O)N[C@@H](CC(=O)O)c1cccc(Cl)c1Cl [Example 94, (S)-3-(2,3-Dichloro-phenyl)-3-{[2-(2-fluoro-phenyl)-5-methyl-oxazole-4-carbonyl]-amino}-propionic acid] | 514
23 | CCCc1nc(C(=O)N[C@@H](CC(=O)O)c2ccc(C)cc2)nn1-c1ccccc1Cl [Example 88, (S)-3-{[1-(2-Chloro-phenyl)-5-propyl-1H-[1,2,4]triazole-3-carbonyl]-amino}-3-p-tolyl-propionic acid] | 335
24 | O=C(O)C[C@H](NC(=O)c1nc(-c2ccccc2)n(-c2ccccc2)n1)c1ccc(Cl)cc1Cl [Example 125, (S)-3-(2,4-Dichloro-phenyl)-3-[(1,5-diphenyl-1H-[1,2,4]triazole-3-carbonyl)-amino]-propionic acid] | 241
25 | Cc1oc(-c2ccccc2F)nc1C(=O)N[C@@H](CC(=O)O)c1ccc(F)cc1 [Example 37, (S)-3-(4-Fluoro-phenyl)-3-{[2-(2-fluoro-phenyl)-5-methyl-oxazole-4-carbonyl]-amino}-propionic acid] | 4200
26 | O=C(O)C[C@H](NC(=O)CCc1nc(-c2ccccc2F)no1)c1cccc(F)c1 [Example 60, (S)-3-(3-Fluoro-phenyl)-3-{3-[3-(2-fluoro-phenyl)-[1,2,4]oxadiazol-5-yl]-propionylamino}-propionic acid] | 22400
27 | Cc1ccccc1[C@H](CC(=O)O)NC(=O)c1nc(-c2ccccc2)n(-c2ccccc2)n1 [Example 84, (S)-3-[(1,5-Diphenyl-1H-[1,2,4]triazole-3-carbonyl)-amino]-3-o-tolyl-propionic acid] | 53.8
28 | C[C@@](CC(=O)O)(NC(=O)c1noc(-c2cccc(F)c2F)n1)c1ccccc1 [Example 40, (S)-3-{[5-(2,3-Difluoro-phenyl)-[1,2,4]oxadiazole-3-carbonyl]-amino}-3-phenyl-butyric acid] | 1940
29 | Cc1oc(-c2ccccc2)nc1C(=O)N[C@@H](CC(=O)O)c1ccccc1Cl [Example 32, (S)-3-(2-Chloro-phenyl)-3-[(5-methyl-2-phenyl-oxazole-4-carbonyl)-amino]-propionic acid] | 1210
30 | CCCC1CCCCN1C(=O)c1cc(C(=O)N[C@@H](CC(=O)O)c2ccccc2)nn1CC (stereo partly drawn) [Example 100, (S)-3-{[1-Ethyl-5-(2-propyl-piperidine-1-carbonyl)-1H-pyrazole-3-carbonyl]-amino}-3-phenyl-propionic acid] | 4750
